# Measured values from US10426782B2, “Pharmaceutical formulations of a pan-RAF kinase inhibitor and processes for their preparation” (Millennium Pharmaceuticals, Inc., priority 2014, dated 2019).
# Columns and labels:
# Type in all cases: physicochemical
# [1] = log p of Compound 1
# [2] = Solubility of Compound 1
# [3] = Thermal gravimetric analysis (TGA); details: elevated temperatures below 200° C.
# Procedure: A suitable hot melt extruder (e.g. twin screw, Leistritz Nano-16 mm or Micro-18 mm) is set up with the appropriate supporting equipment, including a cooling conveyor (e.g., Domer model 220M060600D0169 or Nara TBC-309-DC) and feeder with auger (e.g., K-Tron Gravimeteric Feeder e.g., with dual flight 20 mm auger). Example processing parameters are as follows: feed rate: 2.0 kg/hr; screw speed: 250 rpm; and barrel temperature: 170, 140, 90, 50° C. or 1.0 kg/hr; screw speed: 275 rpm; and barrel temperature: 175, 140, 90, 50° C.
structure (smiles),measurement,setting,value
"C[C@@H](NC(=O)c1ncnc(N)c1Cl)c1ncc(C(=O)Nc2cc(C(F)(F)F)c(Cl)cn2)s1 [Compound 1, (R)-2-(1-(6-amino-5-chloropyrimidine-4-carboxamido)ethyl)-N-(5-chloro-4-(trifluoromethyl)pyridin-2-yl)thiazole-5-carboxamide]",logP,[1],3.63
same,solubility,[2],< 1000 µg/mL
same,thermal stability by TGA,[3],relatively stable
